Usually pIC50 stands for the negative decadic logarithm of the IC50, by convention in mol/L.

The values that follow come from patent US9822124B2, “Bicyclic heteroaromatic carboxamide compounds useful as Pim kinase inhibitors” (Incyte Corporation, priority 2014, dated 2017).

Common to all, as to format: biochemical
Experiment [1] has as its target Pim-1 (Homo sapiens (Human), UniProt P11309). The experiment is described as follows: Pim-1 kinase assay (AlphaScreen, Biotin-labeled BAD peptide substrate). The following applies: 1 mM ATP; read-out: Pim1 IC50. Here is the method: (§1) Pim-1 and Pim-3 kinase assays—20 μL reactions were run in white 384 well polystyrene plates dotted with 0.8 μL compound/DMSO in the assay buffer (50 mM Tris, pH 7.5, 0.01% Tween-20, 5 mM MgCl2, 0.01% BSA, 5 mM DTT), containing 0.05 μM Biotin-labeled BAD peptide substrate (AnaSpec 62269), 1 mM ATP, and […] (Pim-1, Invitrogen PV3503) or […] (Pim-3, Millipore 14-738) enzyme for 1 h at 25° C. Reactions were stopped by addition of 10 μL STOP Buffer (150 mM Tris, pH=7.5, 150 mM NaCl, 75 mM EDTA, 0.01% Tween-20, 0.3% BSA) supplemented with Phospho-Bad (Ser112) Antibody (Cell Signaling 9291) diluted 666-fold, and Streptavidin donor beads (PerkinElmer 6760002) along with Protein-A acceptor beads (PerkinElmer 6760137) at 15 μg/mL each. Supplementation of the STOP buffer with beads and stopping the reactions were done under reduced light. Prior to the stopping reactions STOP buffer with beads was preincubated for 1 h in the dark at room temperature. After stopping the reactions, plates were incubated for 1 h in the dark at room temperature before reading on a PHERAstar FS plate reader (BMG Labtech) under reduced light.

The target in experiment [2] is Pim-2 (Homo sapiens (Human), UniProt Q9P1W9). The experiment in a line: Pim-2 kinase assay (TR-FRET, Fluorescein-labeled CREBtide peptide substrate). The following applies: 1 mM ATP; read-out: Pim2 IC50. Here is the method:
Pim-2 kinase assay—20 μL reactions were run in white 384 well polystyrene plates dotted with 0.8 μL compound/DMSO in the assay buffer (50 mM Tris, pH 7.5, 0.01% Tween-20, 5 mM MgCl2, 0.01% BSA, 5 mM DTT), containing 0.05 μM Fluorescein-labeled CREBtide peptide substrate (Invitrogen PV3508), 1 mM ATP, and 1 nM enzyme (Invitrogen PV3649) for 2 h at 25° C. Reactions were stopped by addition of 10 μL TR-FRET Dilution Buffer (Invitrogen PV3574) with 30 mM EDTA and 1.5 nM LanthaScreen Tb-CREB pSer133 antibody (Invitrogen PV3566). After 30 min. incubation at room temperature, plates were read on a PHERAstar FS plate reader (BMG Labtech).
On the technique in general: TR-FRET usually uses a lanthanide donor and a delayed reading to cut background.

Experiment [3] has as its target Pim-3 (Homo sapiens (Human), UniProt Q86V86). The experiment is described as follows: Pim-3 kinase assay (AlphaScreen, Biotin-labeled BAD peptide substrate). The following applies: 1 mM ATP; read-out: Pim3 IC50. Here is the method:
as §1
On the technique in general: In Alpha technology, singlet oxygen from a donor bead excites a nearby acceptor bead.

pIC50: −log10 of the molar value.

Sequence of Pim-1 (P11309 whole entry): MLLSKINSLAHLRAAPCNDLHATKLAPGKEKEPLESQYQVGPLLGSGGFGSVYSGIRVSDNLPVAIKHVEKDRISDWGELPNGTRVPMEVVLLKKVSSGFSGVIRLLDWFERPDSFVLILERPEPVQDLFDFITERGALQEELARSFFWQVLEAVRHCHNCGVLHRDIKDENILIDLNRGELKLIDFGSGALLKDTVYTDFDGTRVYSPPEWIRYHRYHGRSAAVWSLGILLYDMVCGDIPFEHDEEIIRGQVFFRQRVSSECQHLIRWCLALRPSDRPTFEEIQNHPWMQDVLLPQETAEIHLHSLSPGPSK
Sequence of Pim-2 (Q9P1W9 whole entry): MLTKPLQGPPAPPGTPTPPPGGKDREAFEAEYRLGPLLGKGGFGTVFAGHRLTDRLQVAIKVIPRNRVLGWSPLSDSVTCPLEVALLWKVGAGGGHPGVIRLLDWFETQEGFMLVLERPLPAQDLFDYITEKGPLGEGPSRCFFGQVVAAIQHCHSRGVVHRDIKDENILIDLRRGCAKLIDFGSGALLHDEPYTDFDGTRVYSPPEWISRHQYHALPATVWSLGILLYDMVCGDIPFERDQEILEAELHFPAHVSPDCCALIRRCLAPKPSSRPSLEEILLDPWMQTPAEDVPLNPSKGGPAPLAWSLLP

For the compound `C[C@@H]1C[C@H](N)CN(c2ccncc2NC(=O)c2ccc3occ(-c4c(F)cccc4F)c3n2)C1` [Example 19, N-(4-((3S,5R)-3-Amino-5-methylpiperidin-1-yl)pyridin-3-yl)-3-(2,6-difluorophenyl)furo[3,2-b]pyridine-5-carboxamide], the pIC50 in experiment [1] was ≥ 8.00; in experiment [2] it was ≥ 7.00; in experiment [3] it was ≥ 8.00.
Take `C[C@@H]1C[C@H](N)CN(c2ccncc2NC(=O)c2ccc3cc(C4CC4)oc3n2)C1` [Example 70, N-{4-[(3S,5R)-3-Amino-5-methylpiperidin-1-yl]pyridin-3-yl}-2-cyclopropylfuro[2,3-b]pyridine-6-carboxamide]: the pIC50 in experiment [1] is ≥ 8.00; in experiment [2], ≥ 7.00; in experiment [3], ≥ 8.00.
`CC(C)c1coc2ccc(C(=O)Nc3cnccc3N3CCC[C@H](N)C3)nc12` [Example 36, (S)-N-(4-(3-Aminopiperidin-1-yl)pyridin-3-yl)-3-isopropylfuro[3,2-b]pyridine-5-carboxamide]: the pIC50 is ≥ 8.00 in experiment [1], ≥ 7.00 in experiment [2] and ≥ 8.00 in experiment [3].
As for `C[C@@H]1C[C@H](N)CN(c2ccncc2NC(=O)c2ccc3sc(-c4ccccc4F)cc3n2)C1` [Example 53, N-(4-((3S,5R)-3-Amino-5-methylpiperidin-1-yl)pyridin-3-yl)-2-(2-fluorophenyl)thieno[3,2-b]pyridine-5-carboxamide], the figures for the pIC50 in experiment [1], in experiment [2] and in experiment [3] were ≥ 8.00, 6.00 to 7.00 and ≥ 8.00, respectively.
On to `C[C@H]1CN(c2ccncc2NC(=O)c2ccc3sc(C4CC4)cc3n2)C[C@@H](N)[C@@H]1O` [Example 47, N-(4-((3R,4R,5S)-3-Amino-4-hydroxy-5-methylpiperidin-1-yl)pyridin-3-yl)-2-cyclopropylthieno[3,2-b]pyridine-5-carboxamide], for which the pIC50 is ≥ 8.00 in experiment [1], ≥ 7.00 in experiment [2] and ≥ 8.00 in experiment [3].
For `C[C@@H]1C[C@H](N)CN(c2ccncc2NC(=O)c2ccc3occ(-c4cnn(C)c4)c3n2)C1` [Example 29, N-(4-((3S,5R)-3-Amino-5-methylpiperidin-1-yl)pyridin-3-yl)-3-(1-methyl-1H-pyrazol-4-yl)furo[3,2-b]pyridine-5-carboxamide], the pIC50 in experiment [1] is ≥ 8.00; in experiment [2] it was 5.00 to 6.00; in experiment [3] it was 7.30 to 8.00.
Take `C[C@H]1CN(c2ccncc2NC(=O)c2ccc3occ(C4CCN(C)CC4)c3n2)C[C@@H](N)[C@@H]1O` [Example 16, N-(4-((3R,4R,5S)-3-Amino-4-hydroxy-5-methylpiperidin-1-yl)pyridin-3-yl)-3-(1-methylpiperidin-4-yl)furo[3,2-b]pyridine-5-carboxamide]: the results for the pIC50 in experiment [1], in experiment [2] and in experiment [3] were 7.30 to 8.00, < 5.70 and < 7.40, respectively.
As to `C[C@@H]1C[C@H](N)CN(c2ccncc2NC(=O)c2ccc3occ(-c4cnoc4)c3n2)C1` [Example 28, N-(4-((3S,5R)-3-Amino-5-methylpiperidin-1-yl)pyridin-3-yl)-3-(isoxazol-4-yl)furo[3,2-b]pyridine-5-carboxamide], the values for the pIC50 in experiment [1], in experiment [2] and in experiment [3] were ≥ 8.00, < 5.70 and 7.30 to 8.00, respectively.
Turning to `C[C@H]1CN(c2ccncc2NC(=O)c2ccc3oc(-c4c(F)cccc4F)cc3n2)C[C@@H](N)[C@@H]1O` [Example 8, N-(4-((3R,4R,5S)-3-Amino-4-hydroxy-5-methylpiperidin-1-yl)pyridin-3-yl)-2-(2,6-difluorophenyl)furo[3,2-b]pyridine-5-carboxamide], the pIC50 in experiment [1] is ≥ 8.00; in experiment [2], < 5.70; in experiment [3] it was 7.30 to 8.00.
On to `C[C@@H]1C[C@H](N)CN(c2ccncc2NC(=O)c2ccc3occ(C4=COCCC4)c3n2)C1` [Example 33, N-(4-((3S,5R)-3-Amino-5-methylpiperidin-1-yl)pyridin-3-yl)-3-(3,4-dihydro-2H-pyran-5-yl)furo[3,2-b]pyridine-5-carboxamide], for which the pIC50 was ≥ 8.00 in experiment [1], ≥ 7.00 in experiment [2] and ≥ 8.00 in experiment [3].
On to `C[C@@H]1C[C@H](N)CN(c2ccncc2NC(=O)c2ccc3sc(-c4c(F)cccc4F)cc3n2)C1` [Example 52, N-(4-((3S,5R)-3-Amino-5-methylpiperidin-1-yl)pyridin-3-yl)-2-(2,6-difluorophenyl)thieno[3,2-b]pyridine-5-carboxamide], for which the results for the negative-log IC50 (pIC50) in experiment [1], in experiment [2] and in experiment [3] were ≥ 8.00, 6.00 to 7.00 and ≥ 8.00, respectively.
`C[C@@H]1C[C@H](N)CN(c2ccncc2NC(=O)c2ccc3cc([C@@H]4C[C@@H]4C)oc3n2)C1` (racemic) [Example 75, N-{4-[(3S,5R)-3-Amino-5-methylpiperidin-1-yl]pyridin-3-yl}-2-(cis-2-methylcyclopropyl)furo[2,3-b]pyridine-6-carboxamide]: the pIC50 in experiment [1] is ≥ 8.00; in experiment [2] it was ≥ 7.00; in experiment [3], ≥ 8.00.
Consider `CC(C)c1cc2nc(C(=O)Nc3cnccc3N3C[C@@H](N)[C@H](O)[C@@H](C)C3)ccc2s1` [Example 39, N-(4-((3R,4R,5S)-3-Amino-4-hydroxy-5-methylpiperidin-1-yl)pyridin-3-yl)-2-isopropylthieno[3,2-b]pyridine-5-carboxamide], for which the pIC50 in experiment [1] was ≥ 8.00; in experiment [2] it was ≥ 7.00; in experiment [3] it was ≥ 8.00.
In the case of `C[C@H]1CN(c2ccncc2NC(=O)c2ccc3sc(-c4ccccc4)cc3n2)C[C@@H](N)[C@@H]1O` [Example 46, N-(4-((3R,4R,5S)-3-Amino-4-hydroxy-5-methylpiperidin-1-yl)pyridin-3-yl)-2-phenylthieno[3,2-b]pyridine-5-carboxamide], the pIC50 in experiment [1] is ≥ 8.00; in experiment [2], 6.00 to 7.00; in experiment [3] it was ≥ 8.00.
For the compound `C[C@H]1CN(c2ccncc2NC(=O)c2ccc3sc(-c4ccc(N5CCOCC5)nc4)cc3n2)C[C@@H](N)[C@@H]1O` [Example 44, N-(4-((3R,4R,5S)-3-Amino-4-hydroxy-5-methylpiperidin-1-yl)pyridin-3-yl)-2-(6-morpholinopyridin-3-yl)thieno[3,2-b]pyridine-5-carb oxamide], the pIC50 in experiment [1] was ≥ 8.00; in experiment [2], 6.00 to 7.00; in experiment [3], ≥ 8.00.
On to `C[C@H]1CN(c2ccncc2NC(=O)c2ccc3ccn(C4CCC4)c3n2)C[C@@H](N)[C@@H]1O` [Example 77, N-{4-[(3R,4R,5S)-3-Amino-4-hydroxy-5-methylpiperidin-1-yl]pyridin-3-yl}-1-cyclobutyl-1H-pyrrolo[2,3-b]pyridine-6-carboxamide], for which the pIC50 is ≥ 8.00 in experiment [1], 5.00 to 6.00 in experiment [2] and ≥ 8.00 in experiment [3].
With `C[C@@H]1C[C@H](N)CN(c2ccncc2NC(=O)c2ccc3ccn(C4CCC4)c3n2)C1` [Example 78, N-{4-[(3S,5R)-3-Amino-5-methylpiperidin-1-yl]pyridin-3-yl}-1-cyclobutyl-1H-pyrrolo[2,3-b]pyridine-6-carboxamide], the pIC50 in experiment [1] is ≥ 8.00; in experiment [2] it was 6.00 to 7.00; in experiment [3], ≥ 8.00.
As for `CC(C)c1csc2ccc(C(=O)Nc3cnccc3N3C[C@H](C)C[C@H](N)C3)nc12` [Example 62, N-(4-((3S,5R)-3-Amino-5-methylpiperidin-1-yl)pyridin-3-yl)-3-isopropylthieno[3,2-b]pyridine-5-carboxamide], the pIC50 in experiment [1] was ≥ 8.00; in experiment [2], ≥ 7.00; in experiment [3], ≥ 8.00.
Regarding `C[C@@H]1C[C@H](N)CN(c2ccncc2NC(=O)c2ccc3occ(-c4cncnc4)c3n2)C1` [Example 30, N-(4-((3S,5R)-3-Amino-5-methylpiperidin-1-yl)pyridin-3-yl)-3-(pyrimidin-5-yl)furo[3,2-b]pyridine-5-carboxamide], the pIC50 was 7.30 to 8.00 in experiment [1], < 5.70 in experiment [2] and < 7.40 in experiment [3].
On to `C[C@H]1CN(c2ccncc2NC(=O)c2ccc3cc([C@H]4C[C@@H]4c4ccccc4)oc3n2)C[C@@H](N)[C@@H]1O` [Example 72, N-(4-((3R,4R,5S)-3-Amino-4-hydroxy-5-methylpiperidin-1-yl)pyridin-3-yl)-2-((1S,2S)-2-phenylcyclopropyl)furo[2,3-b]pyridine-6-carboxamide], for which the values for the pIC50 in experiment [1], in experiment [2] and in experiment [3] were ≥ 8.00, 5.00 to 6.00 and ≥ 8.00, respectively.
